Measured values from patent US6737383B1, “Herbicidal oxadiazolidines” (priority 1999, dated 2004).

What was measured:
smallflower flatsedge = assay: Test B flood test smallflower flatsedge; assay type: in vivo, Cyperus difformis
How it was run: (§1)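 Flood test on plants grown to the 2-leaf stage; treated plants kept in greenhouse twelve to sixteen days, then visually rated against controls on a 0 (no effect) to 10 (complete control) scale.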

cocklebur = assay: Test B pre/postemergence cocklebur; assay type: in vivo, Xanthium strumarium
How it was run: (§2)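 Response is a visual 0-to-10 score relative to untreated plants, where 0 means no effect and 10 means complete control, taken twelve to sixteen days after application. Treatments went onto soil at planting and onto foliage of 1- to 4-leaf plants, using a surfactant-containing non-phytotoxic solvent.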

corn = assay: Test B pre/postemergence corn; assay type: in vivo, Zea mays
How it was run: as §2

wheat = assay: Test B pre/postemergence wheat; assay type: in vivo, Triticum aestivum
How it was run: as §2

surinam grass = assay: Test B pre/postemergence surinam grass; assay type: in vivo, Brachiaria decumbens
How it was run: as §2

velvetleaf = assay: Test B pre/postemergence velvetleaf; assay type: in vivo, Abutilon theophrasti
How it was run: as §2

morningglory = assay: Test B pre/postemergence morningglory; assay type: in vivo, Ipomoea hederacea
How it was run: as §2

blackgrass = assay: Test B pre/postemergence blackgrass; assay type: in vivo, Alopecurus myosuroides
How it was run: as §2

duck salad = assay: Test B flood test duck salad; assay type: in vivo, Heteranthera limosa
How it was run: as §1

bedstraw = assay: Test B pre/postemergence bedstraw; assay type: in vivo, Galium aparine
How it was run: as §2

giant foxtail = assay: Test B pre/postemergence giant foxtail; assay type: in vivo, Setaria faberii
How it was run: as §2

rape = assay: Test B pre/postemergence rape; assay type: in vivo, Brassica napus
How it was run: as §2

wild oat = assay: Test B pre/postemergence wild oat; assay type: in vivo, Avena fatua
How it was run: as §2

bamyardgrass = assay: Test B flood test barnyardgrass; assay type: in vivo, Echinochloa crus-galli
How it was run: as §1

soybean = assay: Test B pre/postemergence soybean; assay type: in vivo, Glycine max
How it was run: as §2

crabgrass = assay: Test B pre/postemergence crabgrass; assay type: in vivo, Digitaria sanguinalis
How it was run: as §2

[1] = Pre-emergence, Rate 62 g/ha, scale 0 to 10, 0 is no effect, 10 is complete control
[2] = Rate 125 g/ha, Pre-emergence section (flood test species), scale 0 to 10, 0 no effect, 10 complete control
[3] = Rate 250 g/ha, Pre-emergence (flood test species), scale 0 to 10, 0 is no effect, 10 is complete control
[4] = Rate 500 g/ha, Pre-emergence section of Table B, 0 to 10 scale (0 no effect, 10 complete control)
[5] = Postemergence, Rate 62 g/ha, scale 0 to 10, 0 is no effect, 10 is complete control
[6] = Postemergence, Rate 125 g/ha, scale of 0 to 10 where 0 is no effect and 10 is complete control
[7] = Preemergence, Rate 125 g/ha, scale of 0 to 10 where 0 is no effect and 10 is complete control
[8] = Preemergence, Rate 250 g/ha, scale 0 (no effect) to 10 (complete control)
[9] = Rate 62 g/ha, Preemergence, scale 0 to 10
[10] = Rate 250 g/ha, Postemergence, scale 0 to 10, 0 is no effect, 10 is complete control
[11] = Rate 500 g/ha, Postemergence, scale 0 to 10, 0 is no effect, 10 is complete control
[12] = Rate 500 g/ha, Preemergence, scale 0 to 10 (0 no effect, 10 complete control)

CC(C)N(C(=O)n1oc(=O)n(CC2=NOCCO2)c1=O)c1ccc(F)cc1F [Compound 758]
S. Flatsedge plant response rating (smallflower flatsedge; [1]): 0 | S. Flatsedge plant response rating (smallflower flatsedge; [2]): 0 | S. Flatsedge plant response rating (smallflower flatsedge; [3]): 0 | S. Flatsedge plant response rating (smallflower flatsedge; [4]): 0 | Plant response rating, Cocklebur (cocklebur; [5]): 0 | Cocklebur plant response rating (cocklebur; [6]): 0 | Plant response rating, Cocklebur (cocklebur; [7]): 0 | Cocklebur plant response rating (cocklebur; [8]): 0 | Cocklebur plant response rating (cocklebur; [9]): 0 | Cocklebur plant response rating (cocklebur; [10]): 4 | Cocklebur plant response rating (cocklebur; [11]): 4 | Cocklebur plant response rating (cocklebur; [12]): 0 | Plant response rating, Corn (corn; [5]): 0 | Corn plant response rating (corn; [6]): 0 | Plant response rating, Corn (corn; [7]): 0 | Corn plant response rating (corn; [9]): 0 | Corn plant response rating (corn; [10]): 0 | Corn plant response rating (corn; [11]): 3 | Corn plant response rating (corn; [12]): 3 | Plant response rating, Wheat (wheat; [5]): 0 | Plant response rating, Wheat (wheat; [7]): 5 | Wheat plant response rating (wheat; [8]): 5 | Wheat plant response rating (wheat; [9]): 4 | Wheat plant response rating (wheat; [10]): 5 | Wheat plant response rating (wheat; [11]): 6 | Wheat plant response rating (wheat; [12]): 7 | Plant response rating, B. signalgrass (surinam grass; [5]): 4 | B. signalgrass plant response rating (surinam grass; [6]): 5 | B. signalgrass plant response rating (surinam grass; Preemergence, Rate 62 g/ha, scale of 0 to 10 where 0 is no effect and 10 is complete control): 6 | Plant response rating, B. signalgrass (surinam grass; [7]): 6 | B. signalgrass plant response rating (surinam grass; [8]): 7 | B. signalgrass plant response rating (surinam grass; [10]): 6 | B. signalgrass plant response rating (surinam grass; [11]): 7 | B. signalgrass plant response rating (surinam grass; [12]): 8 | Plant response rating, Velvetleaf (velvetleaf; [5]): 5 | Plant response rating, Velvetleaf (velvetleaf; [7]): 4 | Velvetleaf plant response rating (velvetleaf; [8]): 4 | Velvetleaf plant response rating (velvetleaf; [9]): 2 | Velvetleaf plant response rating (velvetleaf; [10]): 6 | Velvetleaf plant response rating (velvetleaf; [11]): 7 | Velvetleaf plant response rating (velvetleaf; [12]): 7 | Plant response rating, Morningglory (morningglory; [5]): 2 | Morningglory plant response rating (morningglory; [6]): 4 | Plant response rating, Morningglory (morningglory; [7]): 0 | Morningglory plant response rating (morningglory; [8]): 0 | Morningglory plant response rating (morningglory; [9]): 0 | Morningglory plant response rating (morningglory; [10]): 4 | Morningglory plant response rating (morningglory; [11]): 8 | Morningglory plant response rating (morningglory; [12]): 0 | Plant response rating, Blackgrass (blackgrass; [5]): 3 | Blackgrass plant response rating (blackgrass; [6]): 6 | Plant response rating, Blackgrass (blackgrass; [7]): 8 | Blackgrass plant response rating (blackgrass; [8]): 8 | Blackgrass plant response rating (blackgrass; [9]): 6 | Blackgrass plant response rating (blackgrass; [10]): 6 | Blackgrass plant response rating (blackgrass; [11]): 6 | Blackgrass plant response rating (blackgrass; [12]): 9 | Ducksalad plant response rating (duck salad; [1]): 0 | Ducksalad plant response rating (duck salad; [2]): 0 | Ducksalad plant response rating (duck salad; [3]): 0 | Ducksalad plant response rating (duck salad; [4]): 0 | Bedstraw plant response rating (bedstraw; [6]): 7 | Plant response rating, Bedstraw (bedstraw; [7]): 1 | Bedstraw plant response rating (bedstraw; [8]): 3 | Bedstraw plant response rating (bedstraw; [9]): 0 | Bedstraw plant response rating (bedstraw; [10]): 7 | Bedstraw plant response rating (bedstraw; [11]): 8 | Bedstraw plant response rating (bedstraw; [12]): 4 | Plant response rating, Giant foxtail (giant foxtail; [5]): 8 | Giant foxtail plant response rating (giant foxtail; [6]): 9 | Plant response rating, Giant foxtail (giant foxtail; [7]): 9 | Giant foxtail plant response rating (giant foxtail; [8]): 10 | Giant foxtail plant response rating (giant foxtail; [9]): 9 | Giant foxtail plant response rating (giant foxtail; [10]): 9 | Giant foxtail plant response rating (giant foxtail; [11]): 9 | Giant foxtail plant response rating (giant foxtail; [12]): 10 | Plant response rating, Rape (rape; [5]): 0 | Rape plant response rating (rape; [6]): 0 | Plant response rating, Rape (rape; [7]): 4 | Rape plant response rating (rape; [8]): 4 | Rape plant response rating (rape; [9]): 0 | Rape plant response rating (rape; [10]): 0 | Rape plant response rating (rape; [11]): 2 | Rape plant response rating (rape; [12]): 8 | Plant response rating, Wild oats (wild oat; [5]): 0 | Plant response rating, Wild oats (wild oat; [7]): 8 | Wild oats plant response rating (wild oat; [8]): 8 | Wild oats plant response rating (wild oat; [9]): 5 | Wild oats plant response rating (wild oat; [10]): 1 | Wild oats plant response rating (wild oat; [11]): 2 | Wild oats plant response rating (wild oat; [12]): 9 | Barnyardgrass plant response rating (bamyardgrass; [1]): 0 | Barnyardgrass plant response rating (bamyardgrass; [2]): 0 | Barnyardgrass plant response rating (bamyardgrass; [3]): 0 | Barnyardgrass plant response rating (bamyardgrass; [4]): 0 | Plant response rating, Soybean (soybean; [5]): 4 | Plant response rating, Soybean (soybean; [7]): 0 | Soybean plant response rating (soybean; [8]): 0 | Soybean plant response rating (soybean; [9]): 0 | Soybean plant response rating (soybean; [10]): 5 | Soybean plant response rating (soybean; [11]): 5 | Soybean plant response rating (soybean; [12]): 0 | Plant response rating, Crabgrass (crabgrass; [5]): 2 | Crabgrass plant response rating (crabgrass; [6]): 3 | Plant response rating, Crabgrass (crabgrass; [7]): 9 | Crabgrass plant response rating (crabgrass; [8]): 10 | Crabgrass plant response rating (crabgrass; [9]): 9 | Crabgrass plant response rating (crabgrass; [10]): 8 | Crabgrass plant response rating (crabgrass; [11]): 9 | Crabgrass plant response rating (crabgrass; [12]): 10
